Reference: patent US20250051321A1, “TRICYCLIC DERIVATIVE AND PREPARATION METHOD THEREFOR AND APPLICATION THEREOF” (SHANGHAI JEMINCARE PHARMACEUTICAL CO., LTD., priority 2021, published 2025)
pIC50: −log10 of the molar value. Where two headings read alike, the source gives them in different places.

Legend:
[1] = test system: plasma LPA 18:1 and LPA 18:2; assay: Human plasma ex vivo assay (LPA 18:1 / 18:2 by LC-MS/MS); assay type: biochemical; conditions: 37° C., 2 hours
Procedure: The collected plasma was centrifuged at 4000 rpm for 15 minutes at 4° C. The supernatant was aliquoted into a 96-well plate (25 μL per well), sealed, and frozen at −80° C. for further use.
LPA 17:0 powder was dissolved in a mixed solution of water: isopropanol: formic acid (1:1:1) to a final concentration of […]. The mixture was aliquoted and frozen at −20° C.
1 volume of formic acid was added to 1000× methanol, mixed well, and stored at 4° C. a) The 96-well plate containing frozen plasma was removed from the −80° C. freezer and thawed on ice at room temperature. b) 6 μL of 50× LPA 17:0 (internal standard) and 264 μL of 0.1% FA were added to a clean well of the 96-well plate; the final concentration of LPA 17:0 (internal standard) was 50 nM. c) 6× compound was 1:3 serially diluted to a total of 8 concentrations, and 5 μL of the compound per well was added to the 96-well plate containing plasma. The maximum final concentration of the compound was 10 μM, and the final concentration of DMSO was 0.1%. The plate was centrifuged at 300 rpm for 30 seconds. The DMSO control sample reacted for 0 hours was used as the minimum value (Min), and the DMSO control sample reacted for 2 hours was used as the maximum value (Max). […]
d) The DMSO sample reacted for 0 hours was rapidly transferred to 0.1% FA solution containing the internal standard in step b) to terminate the reaction and precipitate plasma proteins. e) The 96-well plate containing plasma and compounds was rapidly incubated in a 37° C. incubator for 2 hours. After the incubation, 6 μL of 10× LPA 17:0 and 264 μL of 0.1% FA were added to each well to terminate the reaction and precipitate plasma proteins. […]
f) All the samples were mixed well with a pipette, and centrifuged at 4000 rpm for 10 minutes at 4° C. 150 μL of the supernatant was added to a 96-well U-bottom plate (Thermo 267245), sealed with silica gel, and then loaded. The contents of LPA 18:1 and LPA 18:2 in the samples were detected by LC-MS/MS system.
LPA 18:1(or 18:2) relative content=LPA 18:1(or 18:2) peak area/LPA 17:0 peak area Percentage reduction (%) in plasma LPA18:1(or 18:2)=(Max−X)/(Max−Min)*100 Max: LPA 18:1 (or 18:2) relative content of the DMSO sample reacted for 2 hours Min: LPA 18:1 (or 18:2) relative content of the DMSO sample reacted for 0 hours X: LPA 18:1 (or 18:2) relative content of the sample after compound treatment for 2 hours The IC50 of the compounds was calculated by fitting a nonlinear regression through percentage reduction in plasma LPA 18:1 (or 18:2) and log value of compound concentration using the software GraphPad Prism 8.
Y=Bottom+(Top−Bottom)/(1+10^((Log IC50−X)*Hill Slope))

ATX = ATX (Homo sapiens (Human), UniProt Q13822); assay: ATX enzyme inhibition assay (Amplex UltraRed/choline oxidase/HRP, 16:0 Lyso PC substrate); assay type: biochemical
Procedure: All compounds were prepared as a 10 mM DMSO stock solution.
Solutions at pH 8.5 and pH 7.5 were prepared respectively with the following formulations:
All compounds, including the positive control compound, were diluted 5-fold from 10 mM to 2 mM with DMSO in the first step. The mixture was then diluted to 100 μM with 1× assay buffer.
3. Separate Detection of Compounds with 1× Assay Buffer at Two pH Values:
a) 5 μL of 10× compound diluent was added to a 384-well plate (Greiner 781209) using a motorized pipette (see the “experimental preparation” step). 5 μL of 1× assay buffer containing 5% DMSO was added to both negative and positive control wells. The plate was centrifuged at 300 rpm for 1 minute at room temperature.
b) 2× ATX ([…]) was prepared with 1× assay buffer, and 25 μL of 2× ATX was added to the plate using a motorized pipette. 25 μL of 1× assay buffer was added to the negative control wells and 25 μL of 2× ATX was added to the positive control wells. The plate was centrifuged at 300 rpm for 1 minute at room temperature.
The plate was incubated at room temperature for 10 minutes.
c) 2.5× working solution containing Amplex UltraRed reagent (125 μM), HRP (2.5 U/mL), choline oxidase (1.25 U/mL), and 16:0 Lyso PC (75 μM) was prepared with 1× assay buffer. 20 μL of 2.5× working solution was added to all reaction wells using a motorized pipette. The plate was centrifuged at 300 rpm for 1 minute at room temperature.
d) The plate was detected by SpectraMax with the following procedures: fluorescence mode; excitation at 550 nm; emission at 590 nm; kinetics; read once every 2 minutes; read continuously for 60 minutes.
The calculation formula of % inhibition (i.e., % inhibition rate) was as follows: […]
V0: X-axis is taken as 0 to 30 minutes, Y-axis is taken as fluorescence readings, and the slope corresponding to the straight line fitted by the software GraphPad Prism 8 is the initial response rate.
V0max: Average V0 of the positive control wells in the plate.
V0min: Average V0 of the negative control wells in the plate.
The IC50 of the compounds was calculated from a nonlinear regression line (dose-initial response rate) fitted by % inhibition and log value of compound concentration using the software GrahPad Prism 8.

[2] = LPA 18:1, read-out: Human plasma ex vivo assay IC50 (18:1 LPA)
[3] = LPA 18:2, read-out: Human plasma ex vivo assay IC50 (18:2 LPA)
[4] = assay buffer pH 7.5, read-out: IC50 (nM) pH 7.5
[5] = assay buffer pH 8.5, read-out: IC50 (nM) pH 8.5

| pIC50 [1, 2] | pIC50 [1, 3] | IC50 (ATX; [4]) | IC50 (ATX; [5]) | SMILES |
| --- | --- | --- | --- | --- |
| 6.70 | 6.62 | 112 nM | 32.8 nM | CN(c1nc(-c2ccc(F)cc2)c(C#N)s1)c1c2c(nc3c(F)cc(N4CCN(CC(=O)N5CC(CO)C5)CC4)cc13)CCC2 [Example A5] |
| 6.74 | 6.73 | 318 nM | 44.7 nM | CN(c1nc(-c2ccc(F)cc2)c(C#N)s1)c1c2c(nc3c(F)cc(N4CCC5(CC4)CN(CC(=O)N4CC(O)C4)C5)cc13)CCC2 [Example A6] |
| 7.13 | 7.14 | 85.1 nM | 22.2 nM | CN(c1nc(-c2ccc(F)cc2)c(C#N)s1)c1c2c(nc3ccc(N4CCN(CC(=O)N5CC(O)C5)CC4)cc13)CC2 [Example A7] |
| 6.61 | 6.57 | 883 nM | 64 nM | CN(c1nc(-c2ccc(F)cc2)c(C#N)s1)c1c2c(nc3cc(F)c(N4CCN(CC(=O)N5CC(O)C5)CC4)cc13)CCC2 [Example A8] |
| 6.46 | 6.49 | 699 nM | 86.8 nM | CN(c1nc(-c2ccc(F)cc2)c(C#N)s1)c1c2c(nc3c(F)cc(N4CC5(CN(CC(=O)N6CC(O)C6)C5)C4)cc13)CCC2 [Example A9] |
| 6.72 | 6.80 | 559 nM | 60.7 nM | CN(c1nc(-c2ccc(F)cc2)c(C#N)s1)c1c2c(nc3ccc(N4CCN(CC(=O)N5CC(O)C5)CC4)nc13)CCC2 [Example A10] |
| 6.52 | 6.44 | 1180 nM | 145 nM | CN(c1nc(-c2ccc(F)cc2)c(C#N)s1)c1c2c(nc3c(F)cc(N4CC5(CCN(CC(=O)N6CC(O)C6)CC5)C4)cc13)CCC2 [Example A11] |
| 7.19 | 7.04 | 219 nM | 22.3 nM | CN(c1nc(-c2ccc(F)cc2)c(C#N)s1)c1c2c(nc3ccc(N4CCN(CC(=O)N5CC(O)C5)CC4)nc13)CCO2 [Example A12] |
| 6.52 | 6.47 | – | 228 nM | Cc1cc(N2CCN(CC(=O)N3CC(O)C3)CC2)cc2c(N(C)c3nc(-c4ccc(F)cc4)c(C#N)s3)c3c(nc12)CCC3 [Example A14] |
| 6.54 | 6.47 | 282 nM | 75.7 nM | CN(c1nc(-c2ccc(F)cc2)c(C#N)s1)c1c2c(nc3c(F)cc(N4CCN(CC(=O)N5CC(F)C5)CC4)cc13)CCC2 [Example A16] |
| 6.78 | 6.76 | – | 48.7 nM | CN(c1nc(-c2ccc(F)cc2)c(C#N)s1)c1c2c(nc3c(F)cc(N4CC5(CN(CC(=O)N6CC(O)C6)C5)C4)cc13)CC2 [Example A17] |
| 6.79 | 6.72 | 228 nM | 61.1 nM | CN(c1nc(-c2ccc(F)cc2)c(C#N)s1)c1c2c(nc3c(F)cc(N4CC5(CN(CC(=O)N6CC(CO)C6)C5)C4)cc13)CC2 [Example A18] |
| 6.93 | 6.88 | 413 nM | 52.7 nM | CN(c1nc(-c2ccc(F)cc2)c(C#N)s1)c1c2c(nc3c(F)cc(N4CCN(CC(=O)N5CC(O)C5)CC4)cc13)COC2 [Example A19] |
| 6.77 | 6.69 | 645 nM | 84 nM | CN(c1nc(-c2ccc(F)cc2)c(C#N)s1)c1c2c(nc3cnc(N4CCN(CC(=O)N5CC(O)C5)CC4)cc13)CCC2 [Example A20] |
| 7.15 | 7.25 | 125 nM | 23.7 nM | CN(c1nc(-c2ccc(F)cc2)c(C#N)s1)c1c2c(nc3ncc(N4CCN(CC(=O)N5CC(O)C5)CC4)cc13)CCC2 [Example A21] |
| 6.33 | 6.31 | – | 181 nM | CN(c1nc(-c2ccc(F)cc2)c(C#N)s1)c1c2c(nc3c(F)cc(N4CC5(CN(CC(=O)N6CC(O)C6)C5)C4)cc13)COC2 [Example A24] |
| 6.60 | 6.57 | 541 nM | 75 nM | CN(c1nc(-c2ccc(F)cc2)c(C#N)s1)c1c2c(nc3c(F)cc(N4CC5(CN(CC(=O)N6CC(CO)C6)C5)C4)cc13)CCC2 [Example A25] |
| 6.75 | 6.77 | – | 112 nM | CN(c1nc(-c2ccc(F)cc2)c(C#N)s1)c1c2c(nc3ccc(N4CCN(S(C)(=O)=O)C[C@@H]4CO)cc13)CCC2 [Example B1] |
| 6.75 | 6.70 | 141 nM | 58.8 nM | CN(c1nc(-c2ccc(F)cc2)c(C#N)s1)c1c2c(nc3ccc(N4CCN(S(C)(=O)=O)C[C@H]4CO)cc13)CCC2 [Example B2] |
| 6.77 | 6.78 | 171 nM | 41.2 nM | CN(c1nc(-c2ccc(F)cc2)c(C#N)s1)c1c2c(nc3c(F)cc(N4CCN(S(C)(=O)=O)[C@H](CO)C4)cc13)CCC2 [Example B3] |
| 6.66 | 6.60 | 611 nM | 66.5 nM | CN(c1nc(-c2ccc(F)cc2)c(C#N)s1)c1c2c(nc3c(F)cc(N4CCN(S(C)(=O)=O)[C@@H](CO)C4)cc13)CCC2 [Example B4] |
| 6.40 | 6.44 | 41.6 nM | 23.8 nM | CN(c1nc(-c2ccc(F)cc2)c(C#N)s1)c1c2c(nc3c(F)cc(N4CC5(CN(C(=O)[C@@H]6CCOC6)C5)C4)cc13)CCC2 [Example C2] |
| 6.85 | 6.87 | 32 nM | 22.7 nM | CN(c1nc(-c2ccc(F)cc2)c(C#N)s1)c1c2c(nc3ncc(N4CC5(CN(C(=O)[C@H]6CCOC6)C5)C4)cc13)CCC2 [Example C3] |
| 6.94 | 7.05 | 38.6 nM | 27.4 nM | CN(c1nc(-c2ccc(F)cc2)c(C#N)s1)c1c2c(nc3ncc(N4CC5(CN(C(=O)[C@@H]6CCOC6)C5)C4)cc13)CCC2 [Example C4] |
| 6.63 | 6.58 | 1230 nM | 196 nM | CN(c1nc(-c2ccc(F)cc2)c(C#N)s1)c1c2c(nc3c(F)cc(N4CCN(C(=O)[C@@H]5CCOC5)CC4)cc13)CCC2 [Example C6] |
| 6.45 | 6.40 | 1140 nM | 193 nM | CN(c1nc(-c2ccc(F)cc2)c(C#N)s1)c1c2c(nc3c(F)cc(N4CCN(C(=O)[C@H]5CCOC5)CC4)cc13)CCC2 [Example C7] |
| 6.67 | 6.63 | 78.5 nM | 23 nM | CN(c1nc(-c2ccc(F)cc2)c(C#N)s1)c1c2c(nc3c(F)cc(N4CC5(CCN(C(=O)[C@@H]6CCOC6)CC5)C4)cc13)CCC2 [Example C9] |
